Test results published in ChEMBL document CHEMBL5303573, “Mapping human microbiome drug metabolism by gut bacteria and their genes” (Nature, 2019).

How the values were obtained:
[1] = The drug is tested on Bacteroides fragilis strain: T(B)9 for biotransformation. The drug concentrations were measured before and after a 12-h incubation by liquid-chromatography-coupled mass spectrometry (LC–MS); settings: 2 µM
[2] = bacteroides stercoris, 12 h, 2 µM
Description: The drug is tested on Bacteroides stercoris strain: ATCC43183 for biotransformation. The drug concentrations were measured before and after a 12-h incubation by liquid-chromatography-coupled mass spectrometry (LC–MS)

[3] = The drug is tested on Providencia alcalifaciens strain: DSM30120 for biotransformation. The drug concentrations were measured before and after a 12-h incubation by liquid-chromatography-coupled mass spectrometry (LC–MS); settings: 2 µM
[4] = The drug is tested on Eggerthella lenta strain: ATCC25559 for biotransformation. The drug concentrations were measured before and after a 12-h incubation by liquid-chromatography-coupled mass spectrometry (LC–MS); settings: 2 µM
[5] = The drug is tested on Ruminococcus torques strain: ATCC27756 for biotransformation. The drug concentrations were measured before and after a 12-h incubation by liquid-chromatography-coupled mass spectrometry (LC–MS); assay type: ADME; design: dose 2 uM, timepoint 0 vs 12 hours; settings: 2 µM
[6] = limosilactobacillus reuteri cf48-3a, 12 h, 2 µM
Description: The drug is tested on Lactobacillus reuteri CF48-3A strain: BEI HM-102 for biotransformation. The drug concentrations were measured before and after a 12-h incubation by liquid-chromatography-coupled mass spectrometry (LC–MS)

[7] = The drug is tested on Bacteroides vulgatus strain: ATCC8482 for biotransformation. The drug concentrations were measured before and after a 12-h incubation by liquid-chromatography-coupled mass spectrometry (LC–MS); settings: phocaeicola vulgatus, 2 µM
[8] = victivallis vadensis, 12 h, 2 µM
Description: The drug is tested on Victivallis vadensis strain: ATCC BAA-548 for biotransformation. The drug concentrations were measured before and after a 12-h incubation by liquid-chromatography-coupled mass spectrometry (LC–MS)

[9] = clostridioides difficile, 12 h, 2 µM
Description: The drug is tested on Clostridium difficile strain: 120 for biotransformation. The drug concentrations were measured before and after a 12-h incubation by liquid-chromatography-coupled mass spectrometry (LC–MS)

[10] = The drug is tested on Clostridium hathewayi strain: DSM13479 for biotransformation. The drug concentrations were measured before and after a 12-h incubation by liquid-chromatography-coupled mass spectrometry (LC–MS); settings: hungatella hathewayi, 2 µM
[11] = The drug is tested on Eubacterium biforme strain: DSM3989 for biotransformation. The drug concentrations were measured before and after a 12-h incubation by liquid-chromatography-coupled mass spectrometry (LC–MS); settings: holdemanella biformis, 2 µM
[12] = The drug is tested on Clostridium spiroforme strain: DSM1552 for biotransformation. The drug concentrations were measured before and after a 12-h incubation by liquid-chromatography-coupled mass spectrometry (LC–MS); settings: thomasclavelia spiroformis, 2 µM
[13] = parabacteroides distasonis, 12 h, 2 µM
Description: The drug is tested on Parabacteroides distasonis strain: ATCC8503 for biotransformation. The drug concentrations were measured before and after a 12-h incubation by liquid-chromatography-coupled mass spectrometry (LC–MS)

SMILES	Bacterial Biotransformation [1]	Bacterial Biotransformation [2]	Bacterial Biotransformation [3]	Bacterial Biotransformation [4]	Bacterial Biotransformation [5]	Bacterial Biotransformation [6]	Bacterial Biotransformation [7]	Bacterial Biotransformation [8]	Bacterial Biotransformation [9]	Bacterial Biotransformation [10]	Bacterial Biotransformation [11]	Bacterial Biotransformation [12]	Bacterial Biotransformation [13]
CN1[C@@H]2CC[C@H]1C[C@@H](OC(=O)C(CO)c1ccccc1)C2 (stereo partly specified) [ATROPINE]	Compound NOT metabolized	Compound NOT metabolized	Compound NOT metabolized	Compound NOT metabolized	Compound NOT metabolized	Compound NOT metabolized	Compound NOT metabolized	–	–	–	–	–	–
CNCC[C@H](Oc1cccc2ccccc12)c1cccs1 [DULOXETINE]	Compound metabolized	Compound metabolized	Compound metabolized	Compound NOT metabolized	Compound NOT metabolized	Compound NOT metabolized	–	Compound NOT metabolized	Compound metabolized	Compound NOT metabolized	Compound NOT metabolized	Compound NOT metabolized	Compound NOT metabolized
Cc1ccc(NC(=O)c2ccc(CN3CCN(C)CC3)cc2)cc1Nc1nccc(-c2cccnc2)n1 [IMATINIB]	Compound NOT metabolized	Compound NOT metabolized	Compound NOT metabolized	Compound NOT metabolized	Compound NOT metabolized	–	Compound metabolized	–	–	–	Compound NOT metabolized	Compound NOT metabolized	Compound NOT metabolized
CCC(C)n1ncn(-c2ccc(N3CCN(c4ccc(OCC5COC(Cn6cncn6)(c6ccc(Cl)cc6Cl)O5)cc4)CC3)cc2)c1=O (stereo unspecified) [ITRACONAZOLE]	–	Compound NOT metabolized	–	Compound NOT metabolized	Compound NOT metabolized	Compound NOT metabolized	Compound NOT metabolized	Compound NOT metabolized	–	–	–	–	Compound NOT metabolized
CN1CCN(C2=Nc3ccccc3Oc3ccc(Cl)cc32)CC1.O=C(O)CCC(=O)O [LOXAPINE SUCCINATE]	–	Compound NOT metabolized	–	Compound NOT metabolized	Compound NOT metabolized	Compound NOT metabolized	Compound NOT metabolized	Compound NOT metabolized	–	–	–	–	Compound NOT metabolized
CO[C@]12C[C@@H](COC(=O)c3cncc(Br)c3)CN(C)[C@@H]1Cc1cn(C)c3cccc2c13 [NICERGOLINE]	–	Compound NOT metabolized	–	Compound NOT metabolized	Compound NOT metabolized	Compound NOT metabolized	Compound metabolized	Compound NOT metabolized	–	–	–	–	Compound NOT metabolized
C#C[C@]1(OC(C)=O)CC[C@H]2[C@@H]3CCC4=C/C(=N/O)CC[C@@H]4[C@H]3CC[C@@]21CC [NORGESTIMATE]	Compound NOT metabolized	–	Compound NOT metabolized	Compound metabolized	Compound NOT metabolized	–	–	Compound NOT metabolized	–	Compound NOT metabolized	Compound metabolized	Compound NOT metabolized	–

The next lines start with the values.

Bacterial Biotransformation [1]	Bacterial Biotransformation [2]	Bacterial Biotransformation [3]	Bacterial Biotransformation [4]	Bacterial Biotransformation [5]	Bacterial Biotransformation [6]	Bacterial Biotransformation [7]	Bacterial Biotransformation [8]	Bacterial Biotransformation [9]	Bacterial Biotransformation [10]	Bacterial Biotransformation [11]	Bacterial Biotransformation [12]	Bacterial Biotransformation [13]	SMILES
Compound NOT metabolized	Compound NOT metabolized	Compound NOT metabolized	–	Compound NOT metabolized	Compound NOT metabolized	Compound NOT metabolized	–	Compound NOT metabolized	–	Compound NOT metabolized	–	–	CC(C)(C(=O)O)c1ccc(C(O)CCCN2CCC(C(O)(c3ccccc3)c3ccccc3)CC2)cc1 (stereo unspecified) [FEXOFENADINE]
–	Compound NOT metabolized	Compound NOT metabolized	–	Compound NOT metabolized	Compound NOT metabolized	Compound NOT metabolized	–	Compound NOT metabolized	Compound NOT metabolized	Compound NOT metabolized	Compound NOT metabolized	–	O=C(CCCN1CCC(O)(c2ccc(Cl)cc2)CC1)c1ccc(F)cc1 [HALOPERIDOL]
–	Compound NOT metabolized	–	–	Compound NOT metabolized	–	Compound NOT metabolized	Compound NOT metabolized	Compound NOT metabolized	Compound NOT metabolized	–	Compound NOT metabolized	Compound NOT metabolized	CC1Cc2ccccc2N1NC(=O)c1ccc(Cl)c(S(N)(=O)=O)c1 (stereo unspecified) [INDAPAMIDE]
Compound metabolized	Compound metabolized	Compound NOT metabolized	–	Compound NOT metabolized	–	Compound metabolized	Compound NOT metabolized	Compound NOT metabolized	Compound NOT metabolized	Compound NOT metabolized	Compound NOT metabolized	Compound metabolized	COC(=O)Nc1nc2ccc(C(=O)c3ccccc3)cc2[nH]1 [MEBENDAZOLE]
–	Compound NOT metabolized	–	Compound NOT metabolized	Compound NOT metabolized	Compound NOT metabolized	Compound NOT metabolized	Compound NOT metabolized	–	–	–	–	Compound NOT metabolized	COc1ccccc1OCC(O)COC(N)=O (stereo unspecified) [METHOCARBAMOL]
Compound NOT metabolized	–	Compound NOT metabolized	Compound NOT metabolized	Compound NOT metabolized	Compound NOT metabolized	Compound NOT metabolized	Compound NOT metabolized	Compound NOT metabolized	Compound NOT metabolized	–	Compound NOT metabolized	Compound NOT metabolized	COc1ccc2cc([C@H](C)C(=O)O)ccc2c1 [NAPROXEN]
